Source: PMC7675582, “Time-Dependent Fluorescence Spectroscopy to Quantify Complex Binding Interactions” (ACS Omega, 2020)

Target: T1, galectin-3 (Homo sapiens, UniProt P17931)
T1 construct: gene LGALS3; recombinant human galectin-3, GST-purified with the GST tag removed
Experiment: intrinsic tryptophan fluorescence lifetime titration (direct waveform recording, excitation at […] nm), fit with n = […]
Format: binding

T1 sequence (P17931 2-250): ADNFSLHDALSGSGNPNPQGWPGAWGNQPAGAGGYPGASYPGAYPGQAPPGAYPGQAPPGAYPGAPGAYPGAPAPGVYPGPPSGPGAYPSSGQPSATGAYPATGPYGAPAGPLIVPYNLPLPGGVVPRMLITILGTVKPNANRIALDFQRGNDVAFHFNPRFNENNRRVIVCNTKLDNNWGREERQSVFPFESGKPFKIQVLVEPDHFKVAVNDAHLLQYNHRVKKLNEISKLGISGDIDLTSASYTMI

- Kd: 54 ± 10 µM
Structure (SMILES): COC1O[C@H](CO)[C@@H](O[C@@H]2O[C@H](CO)[C@H](O)[C@H](O)[C@H]2O)[C@H](O)[C@H]1O (stereo partly shown) [methyllactose]
